Assay results reported in patent US20090131356A1, “miR-15, miR-26, miR-31, miR-145, miR-147, miR-188, miR-215, miR-216, miR-331, mmu-miR-292-3P REGULATED GENES AND PATHWAYS AS TARGETS FOR THERAPEUTIC INTERVENTION” (ASURAGEN, INC., priority 2006, published 2009).

How the values were obtained:
[1] = system: human prostate cancer cells PPC-1, Du145 and RWPE2; test: Alamar Blue proliferation assay, average over prostate cancer cell lines; assay type: cell-based; conditions: 30 nM, 4-7 days post-transfection; average of PPC-1, Du145, RWPE2; vs negative control miRNA (100%)
Description: The inventors assessed the therapeutic effect of hsa-miR-147 for prostate cancer by using 4 individual human prostate cancer cell lines. To measure cellular proliferation of prostate cancer cells, the following prostate cancer cell lines were used: PPC-1 and PC3, derived from a bone metastasis; Du145, derived from a brain metastasis; RWPE2, derived from prostate cells immortalized by human papillomavirus 18 and transformed by the K-RAS oncogene (Bello et al., 1997; Stone et al., 1978; Brothman et al., 1991). PC3, PPC-1, and Du145 cells lack expression of the prostate-specific antigen (PSA) and are independent of androgen receptor (AR) signaling. In contrast, RWPE2 cells test positive for PSA and AR.
PPC-1, Du145 and RWPE2 cells were transfected with synthetic hsa-miR-147 (Pre-miR™-hsa-miR-147, Ambion cat. no. AM17100) or negative control miRNA (NC; Pre-miR™ microRNA Precursor Molecule-Negative Control #2; Ambion cat. no. AM17111) in a 96-well format using a lipid-based transfection reagent. […] Proliferation was assessed 4-7 days post-transfection using Alamar Blue™ (Invitrogen) following the manufacturer's instructions. […] Fluorescent light units (FLU) were measured after 3 hours, normalized to the control, and plotted as percent change in proliferation. […]

[2] = system: parental lung cancer cells; test: Alamar Blue proliferation assay, average over parental lung cancer cell lines; assay type: cell-based, human; conditions: average of 12 parental lung cancer cell lines; vs negative control miRNA (=100%); 72 hours (Calu-3 10 days)
Description: The inventors assessed the therapeutic effect of hsa-miR-147 for lung cancer by using 12 individual lung cancer cell lines. To measure cellular proliferation of lung cancer cells, the following parental non-small cell lung cancer (NSCLC) cells were used: cells derived from lung adenocarcinoma (A549, H1299, H522, H838, Calu-3, HCC827, HCC2935), cells derived from lung squamous cell carcinoma (H520, H226), cells derived from lung adenosquamous cell carcinoma (H596), cells derived from lung bronchioalveolar carcinoma (H1650), and cells derived from lung large cell carcinoma (H460). In addition to these parental cell lines, highly metastatic NSCLC cells were used that stably express the firefly luciferase gene: A549-luc, H460-luc, HCC827-luc, H1650-luc, H441-luc. Unlike the parental cell lines, these metastatic cells readily migrate to distant sites of the test animal and form metastases upon subcutaneous, orthotopic, or intravenous injection. Synthetic hsa-miR-147 or negative control miRNA was delivered via lipid-based transfection into A549, H1299, H522, H838, Calu-3, HCC827, HCC2935, H520, H596, H1650, H460, A549-luc, H460-luc, HCC827-luc, H1650-luc, H441-luc cells and via electroporation into H226 cells. […]

“hsa-miR-147: Synthetic pre-miR-147 (Ambion AM17100; Dharmacon in vivo); mature sequence GUGUGUGGAAAUGCUUCUGC, MIMAT0000251, SEQ ID NO:114 (synthetic pre-miR (Ambion/Dharmacon), chemistry not given here; listed as Homo sapiens)” was tested, and the “inhibition of cellular proliferation, on average” value [1] was 27.48% and the “inhibition of cellular proliferation, on average” value [2] was 25%.
